Experimental data from patent EP0565593B1, “REDUCING PESTICIDAL INTERACTIONS IN CROPS” (priority 1990, dated 1992).
Read-outs that look alike come from different tables or passages of the source.

Key:
[1] = tested on: Corn
[2] = tested on: Shattercane (SHCA); type: in vivo; details: […]
[3] = tested on: Giant foxtail (GIFT); assay: whole plant or invertebrate; type: in vivo
[4] = tested on: Velvetleaf (VELE); assay: whole plant or invertebrate; type: in vivo, Abutilon theophrasti
[5] = tested on: Corn; details: […]
[6] = tested on: Velvetleaf (VELE); type: in vivo, Abutilon theophrasti; details: […]
[7] = observed 7 days after POE (Table 35)
[8] = observed 7 days after POE (Table 36)
[9] = […], PPI, 14 days after PPI (Table 34)
[10] = observed 8 days later (Table 32)
[11] = observed 8 days later (Table 33)

Structure (SMILES)	% Inhibition Corn ([1]; in vivo)	% Inhibition SHCA [2, 7]	% Inhibition SHCA [2, 8]	% Inhibition GIFT ([3]; in vivo)	% Inhibition VELE ([4]; in vivo)	% Inhibition Corn [5, 7]	% Inhibition Corn [5, 8]	% Inhibition VELE [6, 7]	% Inhibition VELE [6, 8]	% Inhibition Corn [1, 9]	% Inhibition SHCA [2, 10]	% Inhibition SHCA [2, 11]	% Inhibition GIFT [3, 9]	% Inhibition VELE [4, 9]	% Inhibition Corn [5, 10]	% Inhibition Corn [5, 11]	% Inhibition VELE [6, 10]	% Inhibition VELE [6, 11]
CCCCCCCCOC(=O)c1sc(Cl)nc1C(F)(F)F [compound 63]	65%	70%	40%	70%	90%	30%	55%	80%	65%									
O=C(Oc1ccccc1)c1sc(Cl)nc1C(F)(F)F [compound 64]	60%	65%	35%	70%	90%	20%	60%	75%	70%									
O=C(O)c1sc(Cl)nc1C(F)(F)F [compound 65]	45%	70%	30%	70%	90%	25%	50%	80%	65%									
CCOC(=O)c1sc(Br)nc1C(F)(F)F [compound 66]	50%	60%	25%	70%	90%	30%	50%	80%	60%									
CCOC(=O)c1sc(I)nc1C(F)(F)F [compound 67]	55%	65%	40%	75%	95%	35%	45%	85%	70%									
O=C(O)c1sc(Cl)nc1C(F)(F)F [compound 68]	45%	70%	45%	65%	80%	25%	65%	85%	60%									
Cc1csc(=NC(C)c2ccccc2)s1 (stereo not drawn) [compound 69]	35%	75%	40%	70%	90%	30%	50%	80%	70%									
[O-][n+]1ccccc1Sc1nc(Cl)c(Cl)c(Cl)c1Cl [compound 70]	75%	70%	25%	70%	95%	70%	65%	90%	85%									
O=C(O)COc1cc(C(F)(F)F)cc(C(F)(F)F)c1 [compound 71]	30%	65%	30%	70%	90%	20%	45%	85%	75%									
CC(Cl)C(=O)Nc1nc(C(F)(F)F)c(I)s1 (stereo not drawn) [compound 72]	75%	75%	30%	75%	90%	70%	60%	85%	70%									
Cc1ccc(SC2(C#N)CC2)cc1C [compound 73]	70%	70%	35%	90%	90%	70%	70%	75%	70%									
CC(C)(C)c1ccccc1SCCC#N [compound 74]	70%	80%	20%	85%	90%	65%	60%	80%	70%									
C=CCC(C)(C#N)Sc1ccc(C(C)C)cc1 (stereo not drawn) [compound 75]	75%	70%	40%	75%	85%	70%	65%	85%	75%									
COC(=O)ON=C(N)COc1cccc2cccnc12 [compound 76]	65%	65%	30%	70%	90%	55%	55%	80%	70%									
O=C(O)COC(c1ccccc1)c1ccccc1 [compound 80]										40%	80%	35%	65%	100%	20%	55%	85%	75%
